Assay results as given in patent US5389687A, “Ring-substituted 2-amino-1,2,3,4-tetra-hydronaphthalenes” (Eli Lilly and Company, priority 1991, dated 1995).
Values joined by “and” are separate entries in the source; they are usually repeats but may differ in a detail not shown here. Identical values can stand only once. Like-named read-outs stand apart in the source and are kept apart here.

Assays:
[1] = system: conscious spontaneous hypertensive rats (SHR); experiment: Effect on blood pressure after i.v. administration to conscious SHR; format: in vivo; settings: Rattus norvegicus, iv, read-out: Blood Pressure ED25 (i.v. dose required to decrease pressure 25%)
Experimental: (§1) The compounds of this invention are also effective in reducing blood pressure. The blood pressure lowering effect of the compounds of this invention was determined in conscious spontaneous hypertensive rats (SHR; 325-425 g). The rats were anesthetized with halothane (2% in nitrous oxide and oxygen) and were implanted with femoral arterial and venous catheters. The tips of arterial and venous catheters-were positioned in the abdominal aorta below the renal arteries and lower abdominal vena cava, respectively. The catheters were routed subcutaneously to an exit point at the base of the skull and then through a small leather harness fastened around the forequarters of each animal. The animals were allowed a 3- to 4-day recovery period after surgery. On the day before an experiment, each rat was conditioned to the experimental surroundings for 6 hours. On the day of the experiment, the harness on the back of each animal was connected to a spring tether through which arterial and venous extension tubing was routed. The other end of the tubing was connected to a water tight swivel. This system permitted direct recording of blood pressure in conscious free moving animals. Mean arterial blood pressure was measured via a Statham strain gauge transducer (P23DB, Statham Instruments, Oxnard, Calif.) and recorded on a multichannel oscillograph (Beckman Model R611, Beckman Instruments, Palo Alto, Calif.). A minimum 30-minute equilibration period was observed prior to the experimental protocol during which time the animals preened and blood pressure was quite labile. Afterward, the animals appeared to sleep and pressure was stable. Following a control blood pressure measurement, rats were dosed with the compound or vehicle i.v., and pressure was monitored at various time intervals thereafter.
(§2) ^1 Standard protocol recorded the blood pressure and heart rate
(§3) responses after 0.3, 1.0 and 3.0 mg/kg i.v. Dose response curves were
(§4) plotted using the % change in pressure from pretreatment control values a
(§5) 15 and 30 minutes after treatment.
(§6) Corr = correlation coefficient for the linear relationship between the lo
(§7) dose(s) and % change (y) in pressure. Values of 1.0 = perfect correlation
(§8) Pos = Positive slope of dose response
ED25 = i.v. dose required to decrease pressure 25%

5HT1a receptors = biological target: T1, 5HT1a receptors (Rattus norvegicus, UniProt P19327); experiment: Binding at 5HT1a receptors in vitro (inhibition of 3H-8-OH-DPAT binding to synaptosomal membranes from cerebral cortex); design: species or system Male Sprague-Dawley rats; settings: 0.4 nM 3H-8-OH-DPAT, 37° C., 10 min, pH 7.4, several values in a cell are separate determinations
T1 construct: synaptosomal membranes isolated from cerebral cortex; from tissue; host or cells: rat cerebral cortex, crude synaptosomal membranes (Male Sprague-Dawley rats from Harlan Industries)
T1 sequence (P19327 1-422): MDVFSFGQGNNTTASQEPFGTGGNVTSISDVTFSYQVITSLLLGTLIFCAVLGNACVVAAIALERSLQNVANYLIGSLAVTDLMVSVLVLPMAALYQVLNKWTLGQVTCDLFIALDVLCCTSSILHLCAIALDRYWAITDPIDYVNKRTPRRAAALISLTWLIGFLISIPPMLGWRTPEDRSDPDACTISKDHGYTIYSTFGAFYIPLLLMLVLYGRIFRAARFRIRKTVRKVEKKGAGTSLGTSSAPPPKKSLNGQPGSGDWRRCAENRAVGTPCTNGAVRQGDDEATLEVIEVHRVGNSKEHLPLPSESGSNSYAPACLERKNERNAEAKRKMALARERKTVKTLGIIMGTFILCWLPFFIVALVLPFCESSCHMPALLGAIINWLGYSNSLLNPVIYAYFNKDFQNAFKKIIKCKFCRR
Experimental: This general procedure is set forth in Wong et al., J. Neural Transm. 71:207-218 (1988).
Male Sprague-Dawley rats (110-150 g) from Harlan Industries (Cumberland, Ind.) were fed a Purina Chow ad libitum for at least 3 days before being used in the studies. Rats were killed by decapitation. The brains were rapidly removed, and the cerebral cortices were dissected out at 4° C.
Brain tissues were homogenized in 0.32 M sucrose. After centrifugation at 1000×g for 10 min and then at 17000×g for 20 min, a crude synaptosomal fraction was sedimented. The pellet was suspended in 100 vol of 50 mM Tris-HCl, pH 7.4, incubated at 37° C. for 10 min, and centrifuged at 50000×g for 10 min. The process was repeated and the final pellet was suspended in ice-chilled 50 mM Tris-HCl, pH 7.4. By the radio-ligand binding method, sites specifically labeled by tritiated 8-hydroxy-2-dipropylamino-1,2,3,4-tetrahydronaphthalene ([…]) have been identified as 5HT-1a receptors.
Binding of (^3 H-8-OH-DPAT) was performed according to the previously described method [Wong et al., J. Neural Transm. 64:251-269 (1985)]. Briefly, synaptosomal membranes isolated from cerebral cortex were incubated at 37° C. for 10 min. in 2 ml of 50 mM Tris-HCl, pH 7.4; 10 μM pargyline; 0.6 mM ascorbic acid; and 0.4 nM […]. Binding was terminated by filtering samples under reduced pressure through glass fiber (GFB) filters. The filters were washed twice with 5 ml of ice cold buffer and placed in scintillation vials with 10 ml of PCS (Amersham/Searle) scintillation fluid. Radioactivity was measured with a liquid scintillation spectrometer. Unlabeled 8-OH-DPAT at 10 μM was also included in separate samples to establish non-specific binding. Specific binding of ^3 H-8-OH-DPAT is defined as the difference of radioactivity bound in the absence and in the presence of 10 μM unlabeled 8-OH-DPAT.

[2] = system: conscious spontaneous hypertensive rats (SHR); experiment: Effect on heart rate after i.v. administration to conscious SHR; format: in vivo; settings: for ED15: Rattus norvegicus, iv, read-out: Heart Rate ED15
Experimental: as §1, §2, §3, §4, §5, §6, §7, §8
HR Index = ED15 for Heart Rate divided by ED25 for Blood

[3] = 0.5 h, 30 min. after treatment, i.v., conscious SHR
[4] = 30 min. after treatment, i.v., conscious SHR
[5] = 0.25 h, 15 min. after treatment, i.v., conscious SHR
[6] = 15 min. after treatment, i.v., conscious SHR

| SMILES | ED25 [1, 3] | IC50 (5HT1a receptors; IC50 5HT1a) | HR Index (ED15 for Heart Rate divided by ED25 for Blood Pressure) [2, 4] | ED15 [2, 5] | ED15 [2, 3] | ED25 [1, 5] | IC50 (5HT1a receptors; read-out: IC50 5HT1a) | Heart Rate ED15 [2, 6] | HR Index (ED15 for Heart Rate divided by ED25 for Blood Pressure) [2, 6] | ED25 ([1]; 0.5 h) | ED15 ([2]; 0.5 h) |
| --- | --- | --- | --- | --- | --- | --- | --- | --- | --- | --- | --- |
| CCCN(CCC)C1CCc2cccc(C(=O)OC)c2C1 (stereo not drawn) [Example 7, 2-Di-n-propylamino-8-methoxycarbonyl-1,2,3,4-tetrahydronaphthalene] | 5.3 mg/kg | 1.4 nM and 1.8 nM and 2.4 nM | 0.21 | 1.4 mg/kg | 1.1 mg/kg |  |  |  |  |  |  |
| CCCN(CCC)C1CCc2cccc(F)c2C1 (stereo not drawn) [Example 6, 2-Di-n-propylamino-8-fluoro-1,2,3,4-tetrahydronaphthalene] |  |  |  |  | 8 mg/kg | 4.5 mg/kg | 280 nM | Pos |  |  |  |
| CCN(C)C1CCc2cccc(Cl)c2C1 (stereo not drawn) [Example 13, 2-Methylethylamino-8-chloro-1,2,3,4-tetrahydronaphthalene] | 0.9 mg/kg |  | 0.70 | 0.48 mg/kg | 0.63 mg/kg | 0.7 mg/kg | 120 nM |  | 0.69 |  |  |
| CC(C)N(C)C1CCc2cccc(Cl)c2C1 (stereo not drawn) [Example 14, 2-Methylisopropylamino-8-chloro-1,2,3,4-tetrahydronaphthalene] |  |  |  | 3.8 mg/kg |  | 2.9 mg/kg |  |  | 1.31 |  |  |
| CCCN(C)C1CCc2cccc(Cl)c2C1 (stereo not drawn) [Example 15, 2-Methylpropylamino-8-chloro-1,2,3,4-tetrahydronaphthalene] | 3.8 mg/kg |  |  |  |  | 1.6 mg/kg | 500 nM |  |  |  |  |
| CCN(C)C1CCc2cccc(C(N)=O)c2C1 (stereo not drawn) [Example 20, 2-Methylethylamino-8-carboxamido-1,2,3,4-tetrahydronaphthalene] |  |  |  |  |  |  | 400 nM |  |  |  |  |
| C=CCN(CC=C)C1CCc2cccc(Cl)c2C1 (stereo not drawn) [Example 3, 2-Diallylamino-8-chloro-1,2,3,4-tetrahydronaphthalene] |  | 45.2 nM |  |  |  |  |  |  |  |  |  |
| CCCN(CCC)C1CCc2cccc(C#N)c2C1 (stereo not drawn) [Example 8, 2-Di-n-propylamino-8-cyano-1,2,3,4-tetrahydronaphthalene] | 4.1 mg/kg | 55 nM | 0.68 | 3.6 mg/kg | 2.8 mg/kg | 5.1 mg/kg |  |  | 0.71 |  |  |
| CCN(CC)C1CCc2cccc(Cl)c2C1 (stereo not drawn) [Example 2, 2-Diethylamino-8-chloro-1,2,3,4-tetrahydronaphthalene] |  | 48 nM and 38.2 nM | 1.00 |  |  |  |  |  |  | 1.5 mg/kg | 1.5 mg/kg |
| CCCN(CCC)C1CCc2cccc(C(N)=O)c2C1 (stereo not drawn) [Example 16, 2-Di-n-propylamino-8-carboxamido-1,2,3,4-tetrahydronaphthalene] | 5.7 mg/kg | 7.1 nM and 9 nM and 6.1 nM and 5.8 nM | 0.51 | 1.5 mg/kg | 2.9 mg/kg | 4.2 mg/kg |  |  | 0.35 |  |  |
